Source: ChEMBL document CHEMBL4765484, “Development of Orally Efficacious Allosteric Inhibitors of TNFα via Fragment-Based Drug Design” (J Med Chem, 2021)
Values after ≈ are worked out from the molar mass of the structure shown. Active and inactive are the calls of the source. No cut-off for these calls is given here.

Legend:
[1] = Solubility in phosphate buffer at pH 7.4; assay type: physicochemical
Tumor necrosis factor [2] = biological target: T1, Tumor necrosis factor (Homo sapiens, UniProt P01375)
Description: Binding affinity to biotinylated human TNFalpha trimer (77 to 233 residues) expressed in Escherichia coli BL21(DE3) assessed as binding half life by SPR analysis

[3] = Fraction unbound in plasma (unknown origin); assay type: ADME, cell-free
[4] = Half life in CD1 mouse at 1 mg/kg, po after 24 hrs by HPLC-MS/MS analysis; assay type: ADME, organism-based; conditions: in vivo
[5] = Oral bioavailability in CD1 mouse at 1 mg/kg after 24 hrs by HPLC-MS/MS analysis; assay type: ADME, organism-based; conditions: in vivo
[6] = Volume of distribution at steady state in CD1 mouse at 1 mg/kg, iv after 24 hrs by HPLC-MS/MS analysis; assay type: ADME, organism-based; conditions: in vivo, read-out: Vdss
Tumor necrosis factor [7] = biological target: T1, Tumor necrosis factor; remark: listed apart in the source
Description: Inhibition of probe-5 binding to human TNFalpha (77 to 233 residues) at 1 nM by fluorescence polarization assay

[8] = Unbound AUC in CD1 mouse at 1 mg/kg, po after 24 hrs by HPLC-MS/MS analysis; assay type: ADME, organism-based; conditions: in vivo
[9] = AUC in CD1 mouse at 1 mg/kg, iv after 24 hrs by HPLC-MS/MS analysis; assay type: ADME, organism-based; set-up: route intravenous, dose 1 mg/kg, time 24 hrs; conditions: in vivo
[10] = Half life in CD1 mouse at 1 mg/kg, iv after 24 hrs by HPLC-MS/MS analysis; assay type: ADME, organism-based; conditions: in vivo
[11] = Unbound clearance in CD1 mouse at 1 mg/kg, iv after 24 hrs by HPLC-MS/MS analysis; assay type: ADME, organism-based; conditions: in vivo
[12] = Intrinsic clearance in human liver microsomes; assay type: ADME, Microsome; conditions: read-out: CLH (converted)
[13] = AUC in CD1 mouse at 1 mg/kg, po after 24 hrs by HPLC-MS/MS analysis; assay type: ADME, organism-based; set-up: route oral, time 24 hrs, dose 1 mg/kg; conditions: in vivo
[14] = Cmax in CD1 mouse at 1 mg/kg, po after 24 hrs by HPLC-MS/MS analysis; assay type: ADME, organism-based; set-up: route oral, dose 1 mg/kg, time 24 hrs; conditions: in vivo
[15] = Tmax in CD1 mouse at 1 mg/kg, po after 24 hrs by HPLC-MS/MS analysis; assay type: ADME, organism-based; conditions: in vivo
Tumor necrosis factor [16] = biological target: T1, Tumor necrosis factor; remark: listed apart in the source
Description: Binding affinity to biotinylated human TNFalpha trimer (77 to 233 residues) expressed in Escherichia coli BL21(DE3) by SPR analysis

[17] = Intrinsic clearance in mouse liver microsomes; assay type: ADME, Microsome; conditions: read-out: CLH (converted)
[18] = Blood clearance in CD1 mouse at 1 mg/kg, iv after 24 hrs by HPLC-MS/MS analysis; assay type: ADME, organism-based
Tumor necrosis factor [19] = biological target: T1, Tumor necrosis factor; remark: listed apart in the source
Description: Induction of stabilization of biotinylated human TNFalpha trimer (77 to 233 residues) expressed in Escherichia coli BL21(DE3) assessed as change in melting temperature

Tumor necrosis factor [20] = biological target: T1, Tumor necrosis factor; conditions: dose 1.0 nM, TDE = time-dependent effect
[21] = (§1) Selectivity index, ratio of Cmax in DBA/J mouse model of CFA and glucose-6-phosphate isomerase-induced arthritis model at 100 mg/kg, po BID beginning 1 hr prior to GPI immunization and measured up to day 17 after GPI immunization by HPLC-MS/MS analysis to EC50 for inhibition of TNFalpha in mouse L929 cells exposed to compound incubated for 1 hr with mouse TNFalpha by luminescence based assay
[22] = as §1, with “30” for “100”; conditions: time 17 day
[23] = AUC (0 to 12 hrs) in DBA/J mouse model of CFA and glucose-6-phosphate isomerase-induced arthritis model at 100 mg/kg, po BID beginning 1 hr prior to GPI immunization and measured up to day 17 after GPI immunization by HPLC-MS/MS analysis; assay type: ADME, organism-based; set-up: route oral, dose 100 mg/kg, time 17 day; conditions: in vivo
[24] = AUC (0 to 12 hrs) in DBA/J mouse model of CFA and glucose-6-phosphate isomerase-induced arthritis model at 30 mg/kg, po BID beginning 1 hr prior to GPI immunization and measured up to day 17 after GPI immunization by HPLC-MS/MS analysis; assay type: ADME, organism-based; set-up: route oral, time 17 day, dose 30 mg/kg; conditions: in vivo
[25] = as §1, with “10” for “100”; conditions: time 17 day
[26] = Cmax in DBA/J mouse model of CFA and glucose-6-phosphate isomerase-induced arthritis model at 10 mg/kg, po BID beginning 1 hr prior to GPI immunization and measured up to day 17 after GPI immunization by HPLC-MS/MS analysis; assay type: ADME, organism-based; set-up: route oral, time 17 day, dose 10 mg/kg; conditions: in vivo
[27] = AUC (0 to 12 hrs) in DBA/J mouse model of CFA and glucose-6-phosphate isomerase-induced arthritis model at 10 mg/kg, po BID beginning 1 hr prior to GPI immunization and measured up to day 17 after GPI immunization by HPLC-MS/MS analysis; assay type: ADME, organism-based; set-up: route oral, time 17 day, dose 10 mg/kg; conditions: in vivo
[28] = Cmax in DBA/J mouse model of CFA and glucose-6-phosphate isomerase-induced arthritis model at 100 mg/kg, po BID beginning 1 hr prior to GPI immunization and measured up to day 17 after GPI immunization by HPLC-MS/MS analysis; assay type: ADME, organism-based; set-up: route oral, time 17 day, dose 100 mg/kg; conditions: in vivo
[29] = Drug uptake in DBA/J mouse model of CFA and glucose-6-phosphate isomerase-induced arthritis model at 10 to 100 mg/kg, po BID beginning 1 hr prior to GPI immunization and measured up to day 17 after GPI immunization by HPLC-MS/MS analysis; assay type: ADME, organism-based; conditions: in vivo, 408 h, dose 10-100 mg/kg, time 17 day
[30] = Cmax in DBA/J mouse model of CFA and glucose-6-phosphate isomerase-induced arthritis model at 30 mg/kg, po BID beginning 1 hr prior to GPI immunization and measured up to day 17 after GPI immunization by HPLC-MS/MS analysis; assay type: ADME, organism-based; set-up: route oral, time 17 day, dose 30 mg/kg; conditions: in vivo
Mus musculus = assay: Antiarthritic activity in DBA/J mouse model of CFA and glucose-6-phosphate isomerase-induced arthritis model assessed as inhibition of paw swelling at 30 to 100 mg/kg, po BID beginning 1 hr prior to GPI immunization and measured on days 13, 15, and 17 after GPI immunization; assay type: functional, organism-based; conditions: dose 30-100 mg/kg, time 13-17 day

T1 sequence (P01375 whole entry): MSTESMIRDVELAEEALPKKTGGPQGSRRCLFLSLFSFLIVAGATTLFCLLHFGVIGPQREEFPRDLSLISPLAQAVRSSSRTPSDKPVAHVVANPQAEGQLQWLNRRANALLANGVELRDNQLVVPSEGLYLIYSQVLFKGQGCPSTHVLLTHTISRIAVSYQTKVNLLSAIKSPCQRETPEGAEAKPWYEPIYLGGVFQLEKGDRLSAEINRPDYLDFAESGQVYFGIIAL

## C[C@@H]1CN(c2ncc(-c3ccc4c(c3)N(Cc3ccccc3OC(F)F)C(C)(C)C4=O)cn2)CCN1C(=O)CO
[1]
  solubility: 1.2 µM (≈ 0.662 µg/mL)
Tumor necrosis factor [2]
  T1/2: 42.8 h
[3]
  fraction unbound: 0.00293
[4]
  half-life: 4.7 h
[5]
  bioavailability: 75.4%
[6]
  Vd: 2.12 L/kg
Tumor necrosis factor [7]
  IC50: 0.189 µM
[8]
  fAUC: 0.00686 µg·h/mL
[9]
  AUC at 24 h: 3.11 µg·h/mL
[10]
  half-life: 4.4 h
[11]
  CL free: 126 L/h/kg
[12]
  CLint scaled: 137 L/h/kg
[13]
  AUC at 24 h: 2.34 µg·h/mL
[14]
  Cmax: 0.2 µg/mL
[15]
  Tmax: 1.8 h
Tumor necrosis factor [16]
  Kd: 0.0013 µM
[17]
  CLint scaled: 101 L/h/kg
[18]
  clearance: 0.369 L/h/kg

## c1ccc(-c2cccc3ccncc23)cc1
Tumor necrosis factor [7]
  IC50: 25.3 µM
Tumor necrosis factor [16]
  Kd: 60 µM

## C[C@@H]1CN(c2ncc(-c3ccc4c(c3)N(Cc3cccnc3C#N)C(C)(C)C4=O)cn2)CCN1C(=O)CO
[1]
  solubility: 48.4 µM (≈ 24.8 µg/mL)
Tumor necrosis factor [2]
  T1/2: 62.3 h
[3]
  fraction unbound: 0.137
[4]
  half-life: 2 h
[5]
  bioavailability: 50.8%
[6]
  Vd: 17.3 L/kg
Tumor necrosis factor [7]
  IC50: 0.163 µM
[8]
  fAUC: 0.0096 µg·h/mL
[9]
  AUC at 24 h: 0.124 µg·h/mL
[10]
  half-life: 1.4 h
[11]
  CL free: 57.3 L/h/kg
[13]
  AUC at 24 h: 0.0627 µg·h/mL
[14]
  Cmax: 0.0167 µg/mL
[15]
  Tmax: 1 h
Tumor necrosis factor [16]
  Kd: 0.0073 µM
[18]
  clearance: 8.77 L/h/kg

## c1ccc(Cn2cnc3ccccc32)cc1
Tumor necrosis factor [7]
  IC50: 204 µM
Tumor necrosis factor [16]
  Kd: 300 µM

## Cc1ccc(Cn2cnc3ccccc32)c(C)c1
Tumor necrosis factor [16]
  Kd: 106 µM

## c1ccc(-c2cccc3ccncc23)c(OCCc2ccc(-c3cccc4ccncc34)cc2)c1
Tumor necrosis factor [7]
  IC50: 1.35 µM
Tumor necrosis factor [16]
  Kd: 0.074 µM
Tumor necrosis factor [19]
  ΔTm: 7 °C

## CN1CCN(Cc2ccc(-c3c[nH]c4ccncc34)c(OCCc3ccc(-c4cccc5ccncc45)cc3)c2)CC1
Tumor necrosis factor [7]
  IC50: 0.029 µM
Tumor necrosis factor [16]
  Kd: 0.0024 µM
Tumor necrosis factor [19]
  ΔTm: > 15 °C

## O=C(NCCOCCOCCOCc1ccc(-c2cccc3ccncc23)c(OCCc2ccc(-c3cccc4ccncc34)cc2)c1)c1ccc2c(c1)C(=O)OC21c2cc(F)c(O)cc2Oc2cc(O)c(F)cc21
Tumor necrosis factor [20]
  Activity: Tde

## CC1(C)C(=O)c2ccc(-c3cnc(N4CCN5C(=O)NC[C@@H]5C4)nc3)cc2N1Cc1cccnc1C#N
Tumor necrosis factor [2]
  T1/2: 0.9 h
[21]
  Ratio: 17
[4]
  half-life: 1.6 h
[5]
  bioavailability: 50.4%
[6]
  Vd: 2.12 L/kg
Tumor necrosis factor [7]
  IC50: 0.071 µM
[8]
  fAUC: 0.0424 µg·h/mL
[9]
  AUC at 24 h: 0.523 µg·h/mL
[10]
  half-life: 1.1 h
[11]
  CL free: 11.9 L/h/kg
[22]
  Ratio: 8.3
[23]
  AUC at 408 h: 46.3 µg·h/mL
[13]
  AUC at 24 h: 0.263 µg·h/mL
[14]
  Cmax: 0.0817 µg/mL
[24]
  AUC at 408 h: 10.2 µg·h/mL
[25]
  Ratio: 2.1
[15]
  Tmax: 1 h
Tumor necrosis factor [16]
  Kd: 0.0068 µM
[26]
  Cmax: 0.767 µg/mL
[27]
  AUC at 408 h: 3.83 µg·h/mL
[28]
  Cmax: 6.19 µg/mL
[29]
  Drug uptake: Dose-dependent effect
[30]
  Cmax: 2.98 µg/mL
[18]
  clearance: 1.92 L/h/kg
Mus musculus
  Activity: Active

## N#CCc1ccc(-c2cccc3ccncc23)cc1
Tumor necrosis factor [7]
  IC50: 7.96 µM
Tumor necrosis factor [16]
  Kd: 2.7 µM
Tumor necrosis factor [19]
  ΔTm: 4 °C

## Cc1nc2ccccc2n1Cc1ccccc1
Tumor necrosis factor [16]
  Kd: 325 µM
